Experimental data taken from patent US11198869B2, “Angelman syndrome antisense treatment” (The Texas A&M University System, priority 2017, dated 2021).
Oligonucleotides are written 5' to 3', each unit as a sugar letter and its base; * is a phosphorothioate linkage, no mark a phosphodiester; rarer units and linkages stand in square brackets, end groups in braces. Plain capitals give the bases only. l = locked nucleic acid (LNA); [5mC] = 5-methylcytosine; d = 2'-deoxy (DNA)

What was measured:
Type in all cases: cell-based, human
UBE3A-AS [1] = assay: UBE3A-AS steady state RNA (TaqMan qRT-PCR) in GABAergic iPSC-derived neurons; conditions: for Difference, UBE3A-AS RNA level: ASOs 10 μM; for Cluster (hierarchical clustering of fitted dose response curves): candidate ASOs, Cluster 1 representing the 9 most potent ASOs
Description: (§1) Human-specific ASOs were then designed to target this region, which included four ASOs targeting non-polymorphic regions in human and regions conserved (100%) with macaque (Rhesus and Cynomolgus) (Table 7 and FIG. 3A). Human induced pluripotent stem cell (iPSC) neural precursor cells were differentiated into GABAergic neurons for 14 DIV and then treated with a control ASO [ASO-C (10 μM, n=3)], Topotecan [Topo (1 μM, n=2)], and six ASOs targeting UBE3A-AS [ASO-1, ASO-2, ASO-3, ASO-4, ASO-5, and ASO-6 (10 μM, n=3)]. Additionally, an ASO targeting an intronic region downstream of SNORD109B was included (ASO-7). Six days post-treatment (20 DIV), RNA was isolated from the neurons and the steady state RNA levels of UBE3A-AS and UBE3A were estimated relative to the control treatment (FIG. 3B).
The potency of ASO-4 was further examined given its effect on UBE3A-AS RNA levels. GABAergic iPSC-derived neurons were treated at 14 DIV with a 10-point ½ log dose response curve of ASO-4 and Topotecan, as a positive control and for comparisons between treatment [1 nM, 3 nM, 10 nM, 30 nM, 100 nM, 300 nM, 1 μM, 3 μM, 10 μM, and 30 μM (ASO-4, n=6; Topotecan, n=2)]. At 20 DIV, the steady state RNA levels of UBE3A-AS were measured and dose response curves fitted to estimate the IC50 and Emax (i.e., maximum UBE3A-AS inhibition) (Table 9 and FIG. 4A). […]
Additional ASOs targeting the 5′-end of UBE3A-AS were then designed to optimize the target sequences of ASO-4 (ASO-4.1, ASO-4.2, ASO-4.3, and ASO-4.4) as well as two other target regions, ASO-3 (ASO-3.1 and ASO-3.2) and ASO-6 (ASO-6.1) (Table 11). Additionally, ASO-4 was manufactured at two different vendors for comparative purposes (ASO-4.S, Sigma; ASO-4.I, Integrated DNA Technologies). Human iPSC-derived neurons (GABAergic) were treated at 14 DIV with a […] ½ log dose curve of ASO-3.1, ASO-3.2, ASO-4.S, ASO-4.I, ASO-4.1, ASO-4.2, ASO-4.3, ASO-4.4, and ASO-6.1 [30 nM, 100 nM, 300 nM, 1 μM (n=6)]. At 20 DIV, the IC50 and Emax of each ASO was estimated as described above (FIG. 5A-B and Table 12). […] No significant difference was observed between ASO-4.S and ASO-4.I.
(§2) The potency of ASO-4 and ASO-6.1 was further examined in iPSC-derived neurons at a later time point in differentiation. GABAergic iPSC-derived neurons were treated at 29 DIV with a 10-point ½ log dose response curve of ASO-4 and ASO-6.1 [1 nM, 3 nM, 10 nM, 30 nM, 100 nM, 300 nM, 1 μM, 3 μM, 10 μM, and 30 μM (n=3)]. At 35 DIV, the IC50 and Emax of each ASO was estimated as described above (FIG. 5C-D and Table 14). The dose response curves of ASO-4 and ASO-6.1 were not similar (Parallelism test: F(3,172)=22.7, p<0.0001).
(§3) GABAergic and glutamatergic induced pluripotent stem cell (iPSC) derived neural precursor cells (NRC-100-010-001 and GNC-301-030-001, Cellular Dynamics International, Madison Wis.) were differentiated into neurons according to the manufactures protocol. Briefly, neural precursor cells were thawed and resuspended in chemically defined medium and added to sterile-culture plates coated with poly-D-lysine and laminin. The medium was replaced 24 hr after plating and then one-half of the medium was replaced every 3-5 days afterwards.
(§4) For cultured iPSC-derived neurons, RNA isolation and cDNA synthesis were performed using the Cell-to-CT kit (Thermo Fisher Scientific) in a lysate volume of 55 μl.
The steady state RNA levels of target transcripts were measured using TaqMan quantitative reverse-transcription PCR (qRT-PCR) assays. Total reaction volume was 10 uL, including 2 μl of cDNA, 1× Gene Expression Master mix (4369016, Thermo Fisher Scientific, Waltham, Mass.), and 1× TaqMan primer assay (Thermo Fisher Scientific). Cycling conditions were 2 minutes at 50° C., 10 minutes at 95° C., and 40 cycles of 15 seconds at 95° C. and 1 minute at 60° C., with readings taken at the 60° C. step of every cycle. […]

UBE3A = UBE3A steady state RNA (qRT-PCR) in GABAergic iPSC-derived neurons; conditions: ASOs 10 μM
Description: as §1
The effects of ASO-4 and Topotecan were then examined on the SNORD116, IPW, SNORD115, and SNORD109A RNAs, which are located upstream of the ASO-4 target region (see FIG. 1A).
The potency of ASO-4 was further examined in iPSC-derived neurons at a later time point in differentiation. GABAergic iPSC-derived neurons were treated at 59 DIV with a control ASO [ASO-C, 10 μM (n=3)] and ASO-4 [1 uM, 5 μM, and 10 μM (n=3)], and the steady state RNA levels of UBE3A-AS and UBE3A were measured as described above (FIG. 4G). Unlike neurons treated with ASO-4 at an earlier time point, the RNA levels of UBE3A and UBE3A-AS were highly inversely correlated (FIGS. 4H and 4I). For example, the effect of ASO-4 (10 μM) on UBE3A-AS RNA levels was similar between neurons treated at 14 and 59 DIV [20 DIV: UBE3A-AS: ↓87% (95% confidence intervals (CI): 80 to 95%); 65 DIV: ↓81% (95% CI: 74 to 88%)], whereas the effect of ASO-4 on UBE3A RNA levels was substantially larger in neurons treated at 59 DIV [20 DIV: ↑30% (95% CI: 16 to 44%); 65 DIV: ↑86% (95% CI: 59% to 113%)].
as §2, §3, §4
The steady state RNA levels of target transcripts were measured using TaqMan quantitative reverse-transcription PCR (qRT-PCR) assays. Total reaction volume was 10 uL, including 2 μl of cDNA, 1× Gene Expression Master mix (4369016, Thermo Fisher Scientific, Waltham, Mass.), and 1× TaqMan primer assay (Thermo Fisher Scientific). Cycling conditions were 2 minutes at 50° C., 10 minutes at 95° C., and 40 cycles of 15 seconds at 95° C. and 1 minute at 60° C., with readings taken at the 60° C. step of every cycle. Reactions were run on a BIO-RAD T1000 CFX96 thermocycler (Bio-Rad Laboratories, Hercules Calif.), with internal control (PPIA, Hs99999904_m1, Thermo Fisher Scientific) and target [UBE3A-AS, Hs01372957_m1; SNORD116-11, Hs04275268_gH; SNORD115, Hs04275288_gH; IPW, Hs03455409_s1; SNORD109A/B, AP47WVR (Thermo Fisher Scientific); UBE3A: forward […] (SEQ ID NO:500); reverse: […]

UBE3A-AS [2] = assay: UBE3A-AS steady state RNA (TaqMan qRT-PCR) in GABAergic iPSC-derived neurons; conditions: for IC50 Ratio relative to ASO-4.4.PS.L: equivalence; for IC50 Ratio relative to ASO-4.4.PS.L / Limit Exceeded (equivalence of IC50 relative to ASO-4.4.PS.L): two one-sided tests; for Relative Potency: relative to ASO-4.4.PS.L = 1
[3] = Topo 1 μM, 14 DIV to 20 DIV, ASO-1 minus labelled treatment
[4] = Topo 1 μM, 14 DIV to 20 DIV, ASO-R minus labelled treatment
[5] = Topo 1 μM, 14 DIV to 20 DIV, Topo minus labelled treatment
[6] = Topo 1 μM, treated 14 DIV, RNA 20 DIV, normalized to ASO-C, ASO-C minus labelled treatment
[7] = Topo 1 μM, 14 DIV to 20 DIV, labelled treatment minus ASO-3
[8] = Topo 1 μM, 14 DIV to 20 DIV, labelled treatment minus ASO-6
[9] = Topo 1 μM, 14 DIV to 20 DIV, labelled treatment minus ASO-R
[10] = Topo 1 μM, treated 14 DIV, RNA 20 DIV, normalized to ASO-C, labelled treatment minus ASO-C
[11] = 14 DIV to 20 DIV, ASO-5 minus labelled treatment
[12] = Cluster 1 ASOs, 18 DIV to 24 DIV, parallel model, 4 Parameter logistic (Hill)
[13] = candidate ASOs, 18 DIV to 24 DIV
[14] = candidate ASOs, 18 DIV to 24 DIV, 4-parameter logistic (Hill)
[15] = candidate ASOs, treated 18 DIV, RNA 24 DIV, 10-point dose curve, n=2, full model, 4-parameter logistic (Hill)

IC50 (UBE3A-AS [2]; [12]) [nM]	IC50 Ratio relative to ASO-4.4.PS.L (UBE3A-AS [2]; Cluster 1 ASOs)	Limit Exceeded (equivalence of IC50 relative to ASO-4.4.PS.L) (UBE3A-AS [2]; Cluster 1 ASOs)	IC50 (UBE3A-AS [2]; [15]) [nM]	Substance	Difference, UBE3A-AS RNA level (UBE3A-AS [1]; [3])	Difference, UBE3A-AS RNA level (UBE3A-AS [1]; [4])	Difference, UBE3A-AS RNA level (UBE3A-AS [1]; [5])	Difference, UBE3A-AS RNA level (UBE3A-AS [1]; [6])	Difference, UBE3A RNA level (UBE3A; [7])	Difference, UBE3A RNA level (UBE3A; [9])	Difference, UBE3A RNA level (UBE3A; [10])	Relative Potency (UBE3A-AS [2]; Cluster 1 ASOs, parallel model)	30 μM (Mean), normalized UBE3A-AS RNA level relative to vehicle (UBE3A-AS [2]; [13])	Emax (normalized UBE3A-AS RNA level relative to vehicle) (UBE3A-AS [2]; [14])	other results
–	–	–	–	G^O*U^O*U^O*U^O*U^O*c*t*t*c*c*t*c*c*a*c*A^O*G^O*U^O*C^O*U^O [ASO-5]	0.20	0.69	0.05	0.71	0.03	0.16	0.16	–	–	–	Difference, UBE3A RNA level (UBE3A; [8]): 0.00
–	–	–	–	U^O*G^O*U^O*C^O*A^O*g*t*t*t*c*t*c*c*c*t*G^O*A^O*A^O*C^O*A^O [ASO-3]	0.28	0.77	0.13	0.79	–	0.13	0.13	–	–	–	Difference, UBE3A-AS RNA level (UBE3A-AS [1]; [11]): 0.08
–	–	–	–	U^O*A^O*G^O*A^O*G^O*g*t*g*a*a*g*g*c*c*a*G^O*G^O*C^O*A^O*C^O [ASO-1]	–	0.49	–	0.51	0.05	0.18	0.18	–	–	–	Difference, UBE3A RNA level (UBE3A; Topo 1 μM, 14 DIV to 20 DIV, labelled treatment minus ASO-5): 0.02; Difference, UBE3A RNA level (UBE3A; [8]): 0.02; Difference, UBE3A RNA level (UBE3A; 14 DIV to 20 DIV, labelled treatment minus Topo (1 μM)): 0.00
–	–	–	–	C^O*U^O*G^O*G^O*U^O*g*t*c*a*a*c*a*a*g*c*C^O*A^O*A^O*A^O*G^O [ASO-6]	0.32	0.81	0.17	0.83	0.03	0.16	0.16	–	–	–	Difference, UBE3A-AS RNA level (UBE3A-AS [1]; 14 DIV to 20 DIV, ASO-3 minus labelled treatment): 0.04; Difference, UBE3A-AS RNA level (UBE3A-AS [1]; [11]): 0.12
177	0.90	equivalent IC50 values	166	5mC^M*T^M*G^M*G^M-t*g*t*c*a*a*c*a*a*g-5mC^M*5mC^M*A^M*A^M [ASO-6.1.PO-1.M]	–	–	–	–	–	–	–	0.3	0.04	−0.02	–
–	–	–	–	A^L*G^L-A^L*a-t*g-g*c-a*c-a*t-c*t-5mC^L*T^L*T^L*G^L (lA*lGlA*dAdT*dGdG*dCdA*dCdA*dTdC*dTl[5mC]*lT*lT*lG) [ASO-4.4.PO-2.L]	–	–	–	–	–	–	–	–	0.6	−2.7	Cluster (hierarchical clustering of fitted dose response curves) (UBE3A-AS [1]): 3
281	0.85	Lower	362	T^L*G^L*G^L*t*g*t*c*a*a*c*a*a*g*5mC^L*5mC^L*A^L*A^L [ASO-6.1.PS.L]	–	–	–	–	–	–	–	0.2	0.04	−0.07	–
153	0.90	equivalent IC50 values	147	5mC^M*T^M*G^M*G^M*t*g*t*c*a*a*c*a*a*g*5mC^M*5mC^M*A^M*A^M [ASO-6.1.PS.M]	–	–	–	–	–	–	–	0.3	0.02	−0.05	–
–	–	–	269000	5mC^M*T^M-G^M*G^M-t*g-t*c-a*a-c*a-a*g-5mC^M*5mC^M-A^M*A^M [ASO-6.1.PO-2.M]	–	–	–	–	–	–	–	–	0.3	−1.2	–

Substance	IC50 (UBE3A-AS [2]; [12]) [nM]	IC50 Ratio relative to ASO-4.4.PS.L (UBE3A-AS [2]; Cluster 1 ASOs)	Limit Exceeded (equivalence of IC50 relative to ASO-4.4.PS.L) (UBE3A-AS [2]; Cluster 1 ASOs)	IC50 (UBE3A-AS [2]; [15]) [nM]	Difference, UBE3A-AS RNA level (UBE3A-AS [1]; [3])	Difference, UBE3A-AS RNA level (UBE3A-AS [1]; [4])	Difference, UBE3A-AS RNA level (UBE3A-AS [1]; [5])	Difference, UBE3A-AS RNA level (UBE3A-AS [1]; [6])	Difference, UBE3A RNA level (UBE3A; [7])	Difference, UBE3A RNA level (UBE3A; [9])	Difference, UBE3A RNA level (UBE3A; [10])	Relative Potency (UBE3A-AS [2]; Cluster 1 ASOs, parallel model)	30 μM (Mean), normalized UBE3A-AS RNA level relative to vehicle (UBE3A-AS [2]; [13])	Emax (normalized UBE3A-AS RNA level relative to vehicle) (UBE3A-AS [2]; [14])	other results
A^L*G^L*A^L-a*t*g*g*c*a*c*a*t*c*t-5mC^L*T^L*T^L*G^L (lA*lG*lAdA*dT*dG*dG*dC*dA*dC*dA*dT*dC*dTl[5mC]*lT*lT*lG) [ASO-4.4.PO-1.L]	322	0.88	Lower	226	–	–	–	–	–	–	–	0.2	0.1	0.04	Cluster (hierarchical clustering of fitted dose response curves) (UBE3A-AS [1]): 1
